For test [1], the system named is H295R cells. In words: Cellular ATP level (CellTiter-Glo).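 On all read-outs here: ATP quantified by luminescence after lysing the cells in CellTiter-Glo reagent, with compound exposure at 37 °C under 5% CO2.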 The note with it: for ATP level, compound alone: H295R cells, serum-containing medium.
Procedure: The ATP levels of cells were measured by lysis in CellTiter-Glo reagent (Promega), and measurement of the luminescence.
After 48 h, 20-80 μl of medium was removed from each well and replaced with 20 μl of each compound diluted to 6× of the final concentration in the culture medium to produce a final volume of 120 μl. The cells were incubated at 37 C in 5% CO2 atmosphere for a time ranging from 15 min to 24 h. The medium was removed and immediately replaced with 50 μl of CellTiter-Glo luminescence cell viability assay reagent (Promega). The cells were lysed by agitation at room temperature for 20 min in the dark. The luminescence was measured using a SpectraMax M5 microplate reader (Molecular Devices) with a 0.5 s acquisition time. The luminescence (RLU) values for control cells ranged from 5000 to 20000 RLU in all experiments, and were scaled by a factor of 0.001 to plot all graphs.
Test [2] concerns H295R cells. In words: Visualization of cholesterol levels by filipin III binding. The test is classed as cell-based. The note with it: for cholesterol level / accumulation (filipin III binding), compound alone: H295R cells, serum-containing medium. How it is done: The cells were seeded in 96-well ibiTreat μ-Plates and allowed to adhere for 48 h prior to the start of each experiment. Cholesterol was detected in fixed cells by incubating with 100 μg/ml filipin III at 37 C for 2 h. […] Images were captured using either a 4× or a 60× objective. Cholesterol esterification was visualized by culturing the cells with 1 μM NBD-cholesterol for 2 h following incubation with the indicated compounds. […] Images were captured using either a 20× or a 60× objective.
The medium was removed and immediately replaced with 100 μl of 4% paraformaldehyde and the cells were fixed at room temperature for 20 min. The cells were washed twice with 200 μl PBS. […] The fixed cells were incubated with filipin III at 37 C in the dark for 2 h.

The test system of test [3] is H295R cells. In words: Cell morphology by phase contrast microscopy. The test is classed as cell-based. The note with it: 30 h. How it is done:
FIG. 4E: […] The cells were cultured with DMSO vehicle (upper images) or with 40 μM ATR-101 (lower images) alone (left images), or in combination with 1.5 mM MβCD (middle images), or in combination with 40 μM cholesterol (right images). Cell morphology was visualized by phase contrast microscopy using a 10× objective. The images are representative of 5 fields under each set of culture conditions. The scale bars denote 100 μm.

Test [4] relates to H295R cells. Put plainly: Visualization of NBD-cholesterol esterification. The class given is cell-based. The note with it: 40 μM exogenous cholesterol, 100 μM ATR-101. As to the method: The cells were seeded in 96-well ibiTreat μ-Plates and allowed to adhere for 48 h prior to the start of each experiment. Cholesterol was detected in fixed cells by incubating with 100 μg/ml filipin III at 37 C for 2 h. The bound filipin III was imaged by fluorescence microscopy using 377/11 nm excitation and 447/60 nm emission wavelengths. Images were captured using either a 4× or a 60× objective. Cholesterol esterification was visualized by culturing the cells with 1 μM NBD-cholesterol for 2 h following incubation with the indicated compounds. NBD-cholesterol esters were imaged by fluorescence microscopy using 485/20 nm excitation wavelengths. Images were captured using either a 20× or a 60× objective.
The cells were seeded in 96-well ibiTreat μ-Plates (Ibidi) in 100 μl at a density of 50,000 cells per well. […] 5 μl of NBD-cholesterol was added to each well to produce a final concentration of 1 μM. When NBD-cholesterol is esterified and localized to cytoplasmic lipid droplets, it produces bright fluorescent foci in the cell. The inhibition of ACAT activity prevents fluorescent focus formation by NBD-cholesterol (see, e.g., Lada, et al., 2004 J Lipid Res, 45, 378-86). After 1.5 h, 5 μl of Hoechst 33342 was added to each well to produce a final concentration of 3 μg/ml. After 30 min, the medium was replaced with fresh medium. NBD-cholesterol esterification was visualized by fluorescence microscopy using either 485/20 nm (NBD) or 387/11 nm (Hoechst) excitation wavelengths and images were captured using either a 60× oil objective or a 20× objective.

Test [5] deals with H295R cells. In words: Cholesterol crystallization and extracellular cholesterol associated with cells. The class given is cell-based. How it is done: To quantify cholesterol crystallization, experiments were conducted that measured the total extracellular cholesterol that was associated with the cells. After culturing cells with the indicated compounds, the culture medium was removed. Medium lacking cholesterol was added to the cells, and the extracellular cholesterol that was released into the wash medium was collected after 30 seconds. To establish if the cholesterol that was released from the cells was exported by ABCA1, the wash step was performed in parallel using media with and without 50 μM glibenclamide, which inhibits ABCA1 activity. The total amount of cell-associated cholesterol that was released into the wash medium was measured using a fluorometric enzyme-linked assay (Cayman Chemical). Cholesterol esters were hydrolyzed using cholesterol esterase. Cholesterol was oxidized by cholesterol oxidase, producing hydrogen peroxide. The hydrogen peroxide was reacted with 10-acetyl-3,7-dihydroxyphenoxazine (ADHP) in the presence of horseradish peroxidase to produce resorufin. Resorufin fluorescence was measured using 555 nm exitation and 590 nm emission wavelengths in a SpectraMax M5 microplate reader (Molecular Devices).
The medium was removed and replaced with 50 μl serum-free medium supplemented with 5 μg/mL apo-AI (without or with 50 μM glyburide to detect ABCA1 transporter-dependent efflux) for either 30 sec or 1 h at 37 C in 5% CO2 atmosphere. After the indicated time, the supernatant, was transferred to a new 96-well plate and a fluorometric-base cholesterol detection assay cocktail was added.

The test system of test [6] is H295R cells. Put plainly: Cortisol secretion (indirect ELISA). The test is classed as cell-based. The settings on record: 40 μM of the compound together with ATR-101, 4 h. As to the method:
Cortisol secretion was measured by replacing the culture medium with fresh medium containing the indicated compounds. The medium was collected at the indicated times. The cortisol concentration in the medium was measured using indirect ELISA (Arbor Assays).
After 48 h, the medium was removed and replaced with 50 μl of fresh medium. After the indicated incubation time, aliquots of the supernatant ranging from 0.5 to 10 μl were diluted in 50 μl of medium were used to measure the amount of cortisol secreted. Cortisol detection and quantification were performed by indirect ELISA according to the manufacturer's protocol (Arbor Assays #K003).

Test [7] deals with H295R cells. Put plainly: Caspase 3/7 activity (Apo-ONE). The test is classed as cell-based. The settings on record: for caspase 3/7 activity, compound alone: H295R cells, serum-containing medium. How it is done: The samples were incubated for 18 h at room temperature in the dark. The fluorescence was measured using a SpectraMax M5 microplate reader with a 0.5 s acquisition time.

[8] abbreviates: H295R cells cultured with the compound together with ATR-101, 4 h.
The mark [9] stands for this setting: H295R cells cultured with the compound together with ATR-101, 24 h.

Entries after “also recorded” stand apart in the source; their conditions may differ.

On to `CC(C)CCC[C@@H](C)[C@H]1CC[C@H]2[C@@H]3CC=C4C[C@@H](O)CC[C@]4(C)[C@H]3CC[C@]12C` [cholesterol], for which the figures for the “effect on ATP depletion by ATR-101” value in test [1] (setting [8]) and in test [1] (setting [9]) were “partially restored the ATP level; also recorded: restored normal or nearly normal ATP levels; also recorded: reduced ATP depletion” and “partially restored the ATP level; also recorded: inhibits ATP depletion by ATR-101”, respectively. Moreover, the “ATP level, compound alone” value in test [1] (4 h) and in test [1] (24 h) was “no detectable effect” each time. Further, the “effect on cholesterol accumulation caused by ATR-101” value in test [2] (H295R cells cultured with the compound together with ATR-101, 4 h or 24 h) is given as “lower cholesterol levels than cells that were cultured with ATR-101 alone; also recorded: prevented intracellular cholesterol accumulation; also recorded: did not have a higher level of filipin III binding to the plasma membrane”. Moreover, the “cholesterol level / accumulation (filipin III binding), compound alone” value in test [2] (24 h) and in test [2] (up to 4 h) was “no detectable effect” in each case. Besides, the “effect on the changes in cell morphology caused by ATR-101” value in test [3] (40 μM ATR-101 with 1.5 mM MβCD or 40 μM cholesterol) is “remained flat and adherent for at least 30 h; also recorded: prevented”. For the same molecule, in test [3] (phase contrast), the “cell morphology, compound alone” value is on record as “no detectable effect”. Besides, in test [4], the “effect of exogenous cholesterol on NBD-cholesterol esterification and on its inhibition by ATR-101” value is reported as “no significant difference”. Moreover, in test [5] (4 h, 100 μM ATR-101 or 40 μM cholesterol), the “total extracellular cholesterol associated with cells” value is reported as “increased the total extracellular cholesterol”. Moreover, the “effect on cholesterol crystallization in cells cultured with ATR-101” value in test [5] (compound in combination with ATR-101) was “produced more extracellular crystals; also recorded: increased the amount of extracellular cholesterol crystals”. Further, the “effect on the inhibition of cortisol secretion by ATR-101” value in test [6] is on record as “neither compound prevented the inhibition of cortisol secretion”. Moreover, the “effect on caspase 3/7 activation by ATR-101” value in test [7] (setting [8]) was “did not affect caspase 3/7 activation”; in test [7] (setting [9]), “reduced caspase activation”. Moreover, the “caspase 3/7 activity, compound alone” value in test [7] (4 h) and in test [7] (24 h) was “no detectable effect” in each case.

The values are drawn from patent US10512667B2, “Compositions and methods for treating conditions related to adrenocortical activity and/or excessive steroid production” (The Regents of the University of Michigan, priority 2017, dated 2019).
